Tests used:
Conditions in all cases: main component drawn
S. aureus DSM 20231 [1] = test: fitness (endpoint OD595 vs no drug) (fraction); higher = more growth
How it was run: (§1)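 In 384-well plates at 37 °C, cultures began at OD595 0.01 in 30 µl, with 55 µl used for S. pneumoniae. OD595 readings every 30 min for 14 h were corrected by the first reading. Fitness divides the stationary-phase transition optical density by the robust mean of no-drug control wells. The result is capped at 1.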

S. aureus Newman [2] = test: as above
How it was run: as §1

S. pneumoniae D39V = test: Bliss interaction score (quartile over a dose matrix) (fitness difference); higher = more antagonism (negative = synergy)
How it was run: (§2)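 Growth was read as OD595 when cultures entered stationary phase, and each value was divided by the plate's robust no-drug mean and capped at 1. This normalised ratio is the fitness value, and fitness for each single drug came from the combination data. The Bliss score subtracts the expected fitness, taken as the product, from the observed fitness and is given as quartiles across technical, biological and donor/recipient replicates.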

S. aureus DSM 20231 [3] = test: as above
How it was run: as §2

B. subtilis 168 = test: as above
How it was run: as §2

S. aureus Newman [4] = test: as above
How it was run: as §2
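Throughout, for Bliss interaction score (quartile over a dose matrix): first quartile when negative (synergy) and third quartile when positive (antagonism).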
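Throughout, for fitness (endpoint OD595 vs no drug): OD595 on entry to stationary phase over no-drug wells; at most 1.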

Cc1onc(-c2ccccc2)c1C(=O)N[C@@H]1C(=O)N2[C@@H]1SC(C)(C)[C@@H]2C(=O)O [Oxacillin] + CCCCCCCCCC(=O)N[C@@H]1[C@H]([C@@H]([C@H](O[C@H]1OC2=C3C=C4C=C2OC5=C(C=C(C=C5)[C@H]([C@H]6C(=O)N[C@@H](C7=C(C(=CC(=C7)O)OC8[C@H]([C@H]([C@@H]([C@H](O8)CO)O)O)O)C9=C(C=CC(=C9)[C@H](C(=O)N6)NC(=O)[C@@H]4NC(=O)[C@@H]1C2=CC(=CC(=C2)OC2=C(C=CC(=C2)[C@H](C(=O)N[C@H](CC2=CC(=C(O3)C=C2)Cl)C(=O)N1)N)O)O)O)C(=O)O)O[C@H]1[C@@H]([C@H]([C@@H]([C@H](O1)CO)O)O)NC(=O)C)Cl)CO)O)O [Teicoplanin]
fitness
Conditions | first compound 0.0156 µg/mL | first compound 0.0312 µg/mL | first compound 0.0625 µg/mL
S. aureus DSM 20231 [1], partner 0.1562 µg/mL | 0.833 | 0.743 | 0.492
S. aureus DSM 20231 [1], partner 0.3125 µg/mL | 0.877 | 0.811 | 0.485
S. aureus DSM 20231 [1], partner 0.625 µg/mL | 0.813 | 0.693 | 0.541
S. aureus Newman [2], partner 0.1562 µg/mL | 0.746 | 0.702 | 0.595
S. aureus Newman [2], partner 0.3125 µg/mL | 0.732 | 0.708 | 0.596
S. aureus Newman [2], partner 0.625 µg/mL | 0.721 | 0.65 | –

fitness, S. aureus Newman [2], one replicate
Conditions | first compound 0.0156 µg/mL | first compound 0.0312 µg/mL | first compound 0.0625 µg/mL
partner 0.62 µg/mL | 0.603 | 0.638 | 0.534
partner 1.24 µg/mL | 0.668 | 0.596 | 0.351
partner 2.48 µg/mL | 0.429 | 0.16 | 0.143

Conditions | Bliss interaction score
B. subtilis 168 | -0.0735
S. aureus DSM 20231 [3] | 0.062
S. aureus Newman [4] | -0.0741
S. pneumoniae D39V | -0.0582

Cn1c2cccc(=O)c-2nc2ccccc21 [Pyocyanin] + CCCCCCCCCC(=O)N[C@@H]1[C@H]([C@@H]([C@H](O[C@H]1OC2=C3C=C4C=C2OC5=C(C=C(C=C5)[C@H]([C@H]6C(=O)N[C@@H](C7=C(C(=CC(=C7)O)OC8[C@H]([C@H]([C@@H]([C@H](O8)CO)O)O)O)C9=C(C=CC(=C9)[C@H](C(=O)N6)NC(=O)[C@@H]4NC(=O)[C@@H]1C2=CC(=CC(=C2)OC2=C(C=CC(=C2)[C@H](C(=O)N[C@H](CC2=CC(=C(O3)C=C2)Cl)C(=O)N1)N)O)O)O)C(=O)O)O[C@H]1[C@@H]([C@H]([C@@H]([C@H](O1)CO)O)O)NC(=O)C)Cl)CO)O)O [Teicoplanin]
fitness
Conditions | first compound 1.25 µg/mL | first compound 2.5 µg/mL | first compound 5 µg/mL
S. aureus DSM 20231 [1], partner 0.1562 µg/mL | 0.99 | 0.906 | 0.619
S. aureus DSM 20231 [1], partner 0.3125 µg/mL | ≥ 1 | 0.962 | 0.647
S. aureus DSM 20231 [1], partner 0.625 µg/mL | ≥ 1 | ≥ 1 | 0.691
S. aureus Newman [2], partner 0.1562 µg/mL | 0.958 | 0.805 | 0.372
S. aureus Newman [2], partner 0.3125 µg/mL | 0.891 | 0.769 | 0.35
S. aureus Newman [2], partner 0.625 µg/mL | 0.708 | 0.54 | 0.247

fitness, S. aureus Newman [2], one replicate
Conditions | first compound 1.25 µg/mL | first compound 2.5 µg/mL | first compound 5 µg/mL
partner 0.62 µg/mL | 0.72 | 0.696 | 0.473
partner 1.24 µg/mL | 0.698 | 0.558 | 0.238
partner 2.48 µg/mL | 0.328 | 0.14 | 0.072

Conditions | Bliss interaction score
B. subtilis 168 | -0.0698
S. aureus DSM 20231 [3] | 0.0554
S. aureus Newman [4] | -0.114
S. pneumoniae D39V | 0.0954

Reference: the supplement of paper PMC10627819
